Assay results: patent US8193191B2, “Urotensin II receptor antagonists” (Janssen Pharmaceutica N.V., priority 2006, dated 2012)
Where two headings read alike, the source gives them in different places.

Tests used:
[1] = biological target: T1, rat GPR14 (U-II receptor) (Rattus norvegicus, UniProt P49684); assay: Rat UII Calcium Mobilization FLIPR Assay; assay type: cell-based; conditions: average value for the compound tested; read-out: Rat UII FLIPR Average IC50
T1 construct: expressed in transfected cells
T1 sequence (P49684 1-386): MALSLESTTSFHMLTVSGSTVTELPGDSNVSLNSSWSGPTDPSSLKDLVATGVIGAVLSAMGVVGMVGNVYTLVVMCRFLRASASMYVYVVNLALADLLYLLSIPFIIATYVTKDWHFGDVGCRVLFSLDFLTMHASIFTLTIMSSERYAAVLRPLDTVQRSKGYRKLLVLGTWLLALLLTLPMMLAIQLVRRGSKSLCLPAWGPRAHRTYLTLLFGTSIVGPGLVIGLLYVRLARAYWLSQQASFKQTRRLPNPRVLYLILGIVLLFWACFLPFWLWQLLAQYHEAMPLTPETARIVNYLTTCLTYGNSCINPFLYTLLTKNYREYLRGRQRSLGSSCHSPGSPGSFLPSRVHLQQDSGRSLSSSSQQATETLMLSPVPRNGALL
Procedure, shortened: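 Fluorescent calcium signals were recorded at room temperature (23° C) by FLIPR. Stable rat U-II receptor CHO lines had been dye-loaded for 1 h at 37° C in pH 7.4 HBSS containing 20 mM HEPES, 0.1% BSA and 2.5 mM probenecid.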

[2] = biological target: T2, endogenous human UII receptor (Homo sapiens, UniProt Q9UKP6); assay: Human Radioligand Binding Assay ((^125I)-U-II binding to human skeletal muscle myoblasts)
T2 sequence (Q9UKP6 1-389): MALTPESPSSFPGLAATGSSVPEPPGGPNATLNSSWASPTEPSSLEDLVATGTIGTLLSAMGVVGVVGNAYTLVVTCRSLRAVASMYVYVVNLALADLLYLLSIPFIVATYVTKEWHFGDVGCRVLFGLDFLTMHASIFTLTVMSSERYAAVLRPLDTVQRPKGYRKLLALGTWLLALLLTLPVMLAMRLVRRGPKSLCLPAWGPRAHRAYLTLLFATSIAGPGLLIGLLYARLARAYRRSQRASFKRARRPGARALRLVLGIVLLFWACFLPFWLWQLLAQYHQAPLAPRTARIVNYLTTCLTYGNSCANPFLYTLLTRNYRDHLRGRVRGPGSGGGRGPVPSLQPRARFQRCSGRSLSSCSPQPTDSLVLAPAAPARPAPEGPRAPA

[3] = biological target: T3, Human UII receptor, 6D9 human rhabdomyosarcoma cells (Homo sapiens, UniProt Q9UKP6); assay: Human UII Calcium Mobilization Assay; assay type: cell-based; conditions: average value, FLIPR TETRA, read-out: Human UII Ca^+ Mobilization Average IC50
T3 construct: 6D9: isolated by dilution subcloning of RMS13 cells, ATCC® Number: CRL-2061; host or cells: 6D9 human rhabdomyosarcoma cells (subclone of RMS13)
T3 sequence (Q9UKP6 1-389): T2 sequence (Q9UKP6 1-389)
Procedure, shortened: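 FLIPR calcium responses were recorded for 4 minutes after room-temperature addition of test antagonist and U-II, in dye-loaded human 6D9 cells (37° C, 45 min; HBSS/HEPES with probenecid 1.25 mM). Compounds serially diluted in HBSS/HEPES, up to 0.1% DMSO; curves gave IC50 and EC50.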

[4] = read-out: Human UII Average Binding Ki, average value, (^125I)-U-II binding to human skeletal muscle myoblasts (HSMM), 25° C., 3 h

## COc1ccc([C@@H](CCCNS(=O)(=O)c2c(C)noc2C)N2C(=O)c3cccc(N4CCN([C@H](C)c5ccccc5)CC4)c3C2=O)cc1OC [Cpd 139, (R)-3,5-dimethyl-isoxazole-4-sulfonic acid (4-(3,4-dimethoxy-phenyl)-4-{1,3-dioxo-4-[4-(1R)-(1-phenyl-ethyl)-piperazin-1-yl]-1,3-dihydro-isoindol-2-yl}-butyl)-amide]
[1]
  IC50: 29 nM
[2]
  Ki: 46 nM
[3]
  IC50: 290 nM

## COc1ccc([C@@H](CCCNS(=O)(=O)c2cn(C)c(C)n2)N2C(=O)c3cccc(N4CCN([C@H](C)c5ccccc5)CC4)c3C2=O)cc1OC [Cpd 140, (R)-1,2-dimethyl-1H-imidazole-4-sulfonic acid (4-(3,4-dimethoxy-phenyl)-4-{1,3-dioxo-4-[4-(1R)-(1-phenyl-ethyl)-piperazin-1-yl]-1,3-dihydro-isoindol-2-yl}-butyl)-amide]
[1]
  IC50: 14 nM
[2]; [4]
  Ki: 16 nM
[3]
  IC50: 220 nM

## COc1ccc([C@@H](CCCNC(=O)c2cnoc2C)N2C(=O)c3cccc(N4CCN([C@H](C)c5ccccc5)CC4)c3C2=O)cc1OC [Cpd 144, (R)-5-methyl-isoxazole-4-carboxylic acid (4-(3,4-dimethoxy-phenyl)-4-{1,3-dioxo-4-[4-(1R)-(1-phenyl-ethyl)-piperazin-1-yl]-1,3-dihydro-isoindol-2-yl}-butyl)-amide]
[1]
  IC50: 11 nM
[2]; [4]
  Ki: 130 nM
[3]
  IC50: 760 nM

## COc1ccc([C@@H](CCCNc2ncccn2)N2C(=O)c3cccc(N4CCN([C@H](C)c5ccccc5)CC4)c3C2=O)cc1OC [Cpd 145, (R)-2-[1-(3,4-dimethoxy-phenyl)-4-(pyrimidin-2-ylamino)-butyl]-4-[4-(1R)-(1-phenyl-ethyl)-piperazin-1-yl]-isoindole-1,3-dione]
[1]
  IC50: 16 nM
[2]
  Ki: 120 nM
[3]
  IC50: 750 nM

## COc1ccc([C@@H](CCCNC(=N)N)N2C(=O)c3cccc(N4CCN([C@H](C)c5ccccc5)CC4)c3C2=O)cc1OC [Cpd 146, (R)-N-(4-(3,4-dimethoxy-phenyl)-4-{1,3-dioxo-4-[4-(1R)-(1-phenyl-ethyl)-piperazin-1-yl]-1,3-dihydro-isoindol-2-yl}-butyl)-guanidine]
[1]
  IC50: 29 nM
[2]
  Ki: 640 nM
[3]
  IC50: 2700 nM

## COc1ccc([C@@H](CCCNC(=O)c2cccn2C)N2C(=O)c3cccc(N4CCN([C@H](C)c5ccccc5)CC4)c3C2=O)cc1OC [Cpd 147, (R)-1-methyl-1H-pyrrole-2-carboxylic acid (4-(3,4-dimethoxy-phenyl)-4-{1,3-dioxo-4-[4-(1R)-(1-phenyl-ethyl)-piperazin-1-yl]-1,3-dihydro-isoindol-2-yl}-butyl)-amide]
[1]
  IC50: 32 nM
[2]
  Ki: 160 nM
[3]
  IC50: 2100 nM

## COc1ccc([C@@H](CCCNC(=O)c2ccc(S(N)(=O)=O)n2C)N2C(=O)c3cccc(N4CCN([C@H](C)c5ccccc5)CC4)c3C2=O)cc1OC [Cpd 148, (R)-1-methyl-5-sulfamoyl-1H-pyrrole-2-carboxylic acid (4-(3,4-dimethoxy-phenyl)-4-{1,3-dioxo-4-[4-(1R)-(1-phenyl-ethyl)-piperazin-1-yl]-1,3-dihydro-isoindol-2-yl}-butyl)-amide]
[1]
  IC50: 18 nM
[2]
  Ki: > 200 nM
[3]
  IC50: 1100 nM

## COc1ccc([C@@H](CCCNC(=O)[C@H]2CCCN2C(C)=O)N2C(=O)c3cccc(N4CCN([C@H](C)c5ccccc5)CC4)c3C2=O)cc1OC [Cpd 149, (R)-1-acetyl-pyrrolidine-2-carboxylic acid (R)-(4-(3,4-dimethoxy-phenyl)-4-{1,3-dioxo-4-[4-(1R)-(1-phenyl-ethyl)-piperazin-1-yl]-1,3-dihydro-isoindol-2-yl}-butyl)-amide]
[1]
  IC50: 15 nM
[2]
  Ki: 71 nM
[3]
  IC50: 760 nM

## COc1ccc([C@@H](CCCNC(=O)c2ccccn2)N2C(=O)c3cccc(N4CCN([C@H](C)c5ccccc5)CC4)c3C2=O)cc1OC [Cpd 150, (R)-pyridine-2-carboxylic acid (4-(3,4-dimethoxy-phenyl)-4-{1,3-dioxo-4-[4-(1R)-(1-phenyl-ethyl)-piperazin-1-yl]-1,3-dihydro-isoindol-2-yl}-butyl)-amide]
[1]
  IC50: 38 nM
[2]
  Ki: 74 nM
[3]
  IC50: 860 nM

## COc1ccc([C@@H](CCCNC(=O)c2cccnc2)N2C(=O)c3cccc(N4CCN([C@H](C)c5ccccc5)CC4)c3C2=O)cc1OC [Cpd 151, (R)-N-(4-(3,4-dimethoxy-phenyl)-4-{1,3-dioxo-4-[4-(1R)-(1-phenyl-ethyl)-piperazin-1-yl]-1,3-dihydro-isoindol-2-yl}-butyl)-nicotinamide]
[1]
  IC50: 14 nM
[2]
  Ki: 74 nM
[3]
  IC50: 1000 nM

## COc1ccc([C@@H](CCCNC(=O)c2cncn2C)N2C(=O)c3cccc(N4CCN([C@H](C)c5ccccc5)CC4)c3C2=O)cc1OC [Cpd 152, (R)-3-methyl-3H-imidazole-4-carboxylic acid (4-(3,4-dimethoxy-phenyl)-4-{1,3-dioxo-4-[4-(1R)-(1-phenyl-ethyl)-piperazin-1-yl]-1,3-dihydro-isoindol-2-yl}-butyl)-amide]
[1]
  IC50: 17 nM
[2]
  Ki: 69 nM
[3]
  IC50: 660 nM

## COc1ccc([C@@H](CCCNC(=O)c2cn(C)cn2)N2C(=O)c3cccc(N4CCN([C@H](C)c5ccccc5)CC4)c3C2=O)cc1OC [Cpd 153, (R)-1-methyl-1H-imidazole-4-carboxylic acid (4-(3,4-dimethoxy-phenyl)-4-{1,3-dioxo-4-[4-(1R)-(1-phenyl-ethyl)-piperazin-1-yl]-1,3-dihydro-isoindol-2-yl}-butyl)-amide]
[1]
  IC50: 13 nM
[2]
  Ki: 88 nM
[3]
  IC50: 1200 nM

## COc1ccc([C@@H](CCCNC(=O)c2ccncc2)N2C(=O)c3cccc(N4CCN([C@H](C)c5ccccc5)CC4)c3C2=O)cc1OC [Cpd 154, (R)-N-(4-(3,4-dimethoxy-phenyl)-4-{1,3-dioxo-4-[4-(1R)-(1-phenyl-ethyl)-piperazin-1-yl]-1,3-dihydro-isoindol-2-yl}-butyl)-isonicotinamide]
[1]
  IC50: 13 nM
[2]
  Ki: 84 nM
[3]
  IC50: 1200 nM

## COc1ccc([C@@H](CCCNC(=O)C2CCCO2)N2C(=O)c3cccc(N4CCN([C@H](C)c5ccccc5)CC4)c3C2=O)cc1OC (stereo partly drawn) [Cpd 155, (R)-tetrahydro-furan-2-carboxylic acid (4-(3,4-dimethoxy-phenyl)-4-{1,3-dioxo-4-[4-(1R)-(1-phenyl-ethyl)-piperazin-1-yl]-1,3-dihydro-isoindol-2-yl}-butyl)-amide]
[1]
  IC50: 9.4 nM
[2]
  Ki: 45 nM
[3]
  IC50: 400 nM

## COc1ccc([C@@H](CCCNC(=O)c2csc(C)n2)N2C(=O)c3cccc(N4CCN([C@H](C)c5ccccc5)CC4)c3C2=O)cc1OC [Cpd 156, (R)-2-methyl-thiazole-4-carboxylic acid (4-(3,4-dimethoxy-phenyl)-4-{1,3-dioxo-4-[4-(1R)-(1-phenyl-ethyl)-piperazin-1-yl]-1,3-dihydro-isoindol-2-yl}-butyl)-amide]
[1]
  IC50: 35 nM
[2]
  Ki: 84 nM
[3]
  IC50: 490 nM

## COc1ccc([C@@H](CCCNC(=O)c2ccc(S(C)(=O)=O)s2)N2C(=O)c3cccc(N4CCN([C@H](C)c5ccccc5)CC4)c3C2=O)cc1OC [Cpd 157, (R)-5-methanesulfonyl-thiophene-2-carboxylic acid (4-(3,4-dimethoxy-phenyl)-4-{1,3-dioxo-4-[4-(1R)-(1-phenyl-ethyl)-piperazin-1-yl]-1,3-dihydro-isoindol-2-yl}-butyl)-amide]
[1]
  IC50: 32 nM
[2]
  Ki: 260 nM
[3]
  IC50: 680 nM

## COc1ccc([C@@H](CCCNC(=O)c2conc2C)N2C(=O)c3cccc(N4CCN([C@H](C)c5ccccc5)CC4)c3C2=O)cc1OC [Cpd 158, (R)-3-methyl-isoxazole-4-carboxylic acid (4-(3,4-dimethoxy-phenyl)-4-{1,3-dioxo-4-[4-(1R)-(1-phenyl-ethyl)-piperazin-1-yl]-1,3-dihydro-isoindol-2-yl}-butyl)-amide]
[1]
  IC50: 16 nM
[2]
  Ki: 99 nM
[3]
  IC50: 330 nM
